Patent US4021472A, “Guanidinobenzoic acid derivatives” (Ono Pharmaceutical Co., Ltd., priority 1974, dated 1977)
Converted amounts (≈) assume the structure as drawn. Where two headings read alike, the source gives them in different places.

Tests used:
trypsin = target: T1, trypsin (Bos taurus, UniProt P00760); assay: Anti-trypsin: 50% inhibition of hydrolysis of p-tosylarginine methyl ester by trypsin in vitro; type: biochemical; details: 37° C., 30 minutes, Tris-HCl buffer pH 8.5, p-tosylarginine methyl ester substrate; read-out: 50% Inhibition Concentration, Anti-Trypsin
T1 sequence (P00760 24-246): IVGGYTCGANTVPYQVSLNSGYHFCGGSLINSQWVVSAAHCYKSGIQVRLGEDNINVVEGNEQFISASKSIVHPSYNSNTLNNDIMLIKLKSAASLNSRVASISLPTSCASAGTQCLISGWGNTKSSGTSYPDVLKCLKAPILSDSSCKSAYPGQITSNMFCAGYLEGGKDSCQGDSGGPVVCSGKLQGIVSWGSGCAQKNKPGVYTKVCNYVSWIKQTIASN
Experimental: The inhibitory activities of representative compounds of formula (I) against plasmin and trypsin in vitro were determined in a manner similar to the method described by M. Muramatsu et al (J. Biochemistry 57, 402 (1965)) for plasmin, and the method described by M. Muramatsu et al (J. Biochemistry 58, 214 (1964)) for trypsin, as follows:
(2) Trypsin: A system comprising 0.4 ml of trypsin (1.25 μg/ml), 0.5 ml of p-tosylarginine methyl ester (20 mM) in Tris-HCl buffer (pH 8.5) and 0.1 ml of a solution of each of the following compounds of formula (I) at various concentrations was reacted at a temperature of 37° C. for 30 minutes. The concentration of each of the test compounds at which the activity of trypsin 0.5 μg to hydrolyze p-tosylarginine methyl ester was 50% inhibited is shown in Table 1 below. As a control, Trasylol (tradename of a peptide extracted from bovine organs having an inhibitory activity against a proteolytic enzyme and manufactured by Bayer A.G.) was used.

plasmin [1] = target: T2, plasmin (Homo sapiens, UniProt P00747); assay: Anti-plasmin: 50% inhibition of plasmin in vitro (euglobulin/streptokinase/fibrinogen system); type: biochemical
T2 construct: from tissue
Experimental: (1) Plasmin: A system comprising 0.1 ml of human euglobulin (10 fold dilution), 0.1 ml of streptokinase (2000 unit/ml), 0.4 ml of fibrinogen (4% solution), 0.3 ml of a 0.1 M borate saline buffer solution (pH 7.4) and 0.1 ml of a solution of each of the following compounds of formula (I) at various concentrations was allowed to react at a temperature of 37° C. for 30 minutes.

Solubility in water = type: physicochemical
plasmin [2] = assay: Inhibitory effects for fibrinolysis of plasmin (fibrinolytic activity in rabbits after human serum and streptokinase); type: in vivo, rabbit; details: 5 mg/kg iv
Experimental: Inhibitory effects for fibrinolysis of plasmin were examined according to the method of S. Okamoto and U. Okamoto (Keio Journal of Medicine 11 (No. 3) 105 (1962)).
10 ml of human serum was administered to male rabbits weighing 2.0 to 2.5 Kg through the femoral vein, and after 2 minutes 50,000 units of streptokinase was administered to the rabbits intraveneously to activate plasmin.
Each of the test compounds of the present invention was administered to the rabbits at a dosage level of 5 mg/Kg 5 minutes after the administration of streptokinase. After 15, 30, 60, 90, 120 and 180 minutes, 0.5 ml of blood was drawn from the rabbits, and the blood then incubated at 37° C. for 3 hrs. to coagulate the blood. The thus formed blood clots were washed with water and dried. The dry weight of the blood clots was evaluated and compared with the normal value (the value obtained prior to administration of the human serum).
The values in Table 2 were calculated according to the following equation: [formula]

rat pancreatitis = assay: Effect on rat pancreatitis induced by sodium taurocholate and trypsin (mortality); type: in vivo, rat (male Wistar); details: intravenous injection
Experimental: Male Wistar rats weighing 200 to 250 g were laparotomized under anesthetization with pentobarbital and to the thus laparotomized rats 0.1 ml of a mixture of sodium taurocholate and trypsin was administered through the pancreatic duct to induce pancreatitis.
Mortality rates for up to 48 hrs. after the administration were compared between the groups in which the compounds of the present invention were injected intravenously and the control groups in which a physiological salt solution was injected intravenously.

[3] = 37° C., 30 minutes, borate saline buffer pH 7.4, human euglobulin, streptokinase, fibrinogen, read-out: 50% Inhibition Concentration, Anti-Plasmin

T2 sequence (P00747 581-810 limits assumed): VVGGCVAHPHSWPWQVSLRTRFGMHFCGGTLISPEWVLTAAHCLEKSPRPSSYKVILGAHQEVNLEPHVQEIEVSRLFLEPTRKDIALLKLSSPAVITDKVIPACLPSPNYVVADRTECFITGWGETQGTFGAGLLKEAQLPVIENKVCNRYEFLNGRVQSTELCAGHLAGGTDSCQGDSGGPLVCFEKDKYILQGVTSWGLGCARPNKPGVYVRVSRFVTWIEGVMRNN
T2 sequence (P00747 97-580 partner limits assumed): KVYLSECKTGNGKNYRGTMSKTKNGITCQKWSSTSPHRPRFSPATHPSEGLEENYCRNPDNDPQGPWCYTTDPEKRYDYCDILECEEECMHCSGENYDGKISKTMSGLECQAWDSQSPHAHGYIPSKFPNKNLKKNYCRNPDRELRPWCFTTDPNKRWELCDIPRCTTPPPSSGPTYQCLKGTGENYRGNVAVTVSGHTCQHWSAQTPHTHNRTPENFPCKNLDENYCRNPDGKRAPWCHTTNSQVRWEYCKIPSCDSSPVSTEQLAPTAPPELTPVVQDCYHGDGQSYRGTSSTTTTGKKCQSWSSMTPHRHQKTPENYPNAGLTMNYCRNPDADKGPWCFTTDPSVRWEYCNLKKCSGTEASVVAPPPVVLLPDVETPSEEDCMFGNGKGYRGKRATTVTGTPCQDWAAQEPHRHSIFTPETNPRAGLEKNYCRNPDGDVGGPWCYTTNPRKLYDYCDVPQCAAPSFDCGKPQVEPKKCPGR

SMILES	IC50 (trypsin)	IC50 (plasmin [1]; [3])	solubility (Solubility in water)	Fibrinolytic Activity in Rabbits (plasmin [2]; 15 min. after)	Fibrinolytic Activity in Rabbits (plasmin [2]; 30 min. after)	Fibrinolytic Activity in Rabbits (plasmin [2]; 60 min. after)	Fibrinolytic Activity in Rabbits (plasmin [2]; 90 min. after)	Fibrinolytic Activity in Rabbits (plasmin [2]; 120 min. after)	Fibrinolytic Activity in Rabbits (plasmin [2]; 180 min. after)	Mortality for 48 hrs. (rat pancreatitis; 1 mg/kg)	Mortality for 48 hrs. (rat pancreatitis; 2.5 mg/kg)	Mortality for 48 hrs. (rat pancreatitis; 5.0 mg/kg)	IC50 (plasmin [1])
CN(C)C(=O)COC(=O)CCc1ccc(OC(=O)c2ccc(NC(=N)N)cc2)cc1 [compound 7]	0.56 nM	120 nM	10 mM (≈ 4120 µg/mL)										
CNC(=O)COC(=O)Cc1ccc(OC(=O)c2ccc(NC(=N)N)cc2)cc1 [compound 8]	12 nM	10 nM	10 mM (≈ 3840 µg/mL)										
CN(C)C(=O)COC(=O)c1ccc(OC(=O)c2ccc(NC(=N)N)cc2)cc1 [compound 3]	2.7 nM	2 nM	> 20 mM										
CCCN(CCC)C(=O)COC(=O)c1ccc(OC(=O)c2ccc(NC(=N)N)cc2)cc1 [compound 4]	1.4 nM	0.53 nM	10 mM (≈ 4410 µg/mL)										
CNC(=O)COC(=O)c1ccc(OC(=O)c2ccc(NC(=N)N)cc2)cc1 [Compound No.2]	3.5 nM	1.6 nM	50 mM (≈ 18500 µg/mL)	0%	0%	2%	2%	12%	31%	85.7%	42.8%	30%	
CN(C)C(=O)COC(=O)C=Cc1ccc(OC(=O)c2ccc(NC(=N)N)cc2)cc1 [compound 6]	0.09 nM	19.5 nM	10 mM (≈ 4100 µg/mL)										
CN(C)C(=O)COC(=O)Cc1ccc(OC(=O)c2ccc(NC(=N)N)cc2)cc1 [Compound No.5]	8.5 nM		100 mM (≈ 39800 µg/mL)	0%	0%	4%	20%	46%	52%	64.2%	50.0%	44.4%	38 nM
N=C(N)Nc1ccc(C(=O)Oc2ccc(C(=O)OCC(N)=O)cc2)cc1 [compound 1]	3 nM	15 nM	1 mM (≈ 356 µg/mL)										
